Results taken from paper PMC11093748, “De novo identification of CD4^+ T cell epitopes” (Nature Methods, 2024).

tested on: pooled TCR1, TCR2, TCR3, TCR5, TCR7, TCR24, TCR37 with one TCR left out; test: Multiplexed TCR/library dropout screen, individual ES of each leave-one-out pool; assay type: cell-based, mouse; conditions: leave-one-out pool without TCR1
Description: Supplement 41592_2024_2255_MOESM7_ESM.xlsx, sheet "leave-one-out analysis" | column: LOO_TCR1; LOO_TCR2; LOO_TCR3; LOO_TCR5; LOO_TCR7; LOO_TCR24; LOO_TCR37

In order of falling “INDIVIDUAL ES LOO_TCR1” value:
1. AEKVRNLPAGHGLNAQ  5.319e-5
2. AGGVAVIKAGAATEV  2.749e-5
3. ALVREGLRNVAAGANP  -1.224e-5
4. AKAAVEEGIVAGGGV  -3.982e-5
5. AAVEEGIVAGGGVTLL  -4.978e-5

same assay, conditions: leave-one-out pool without TCR2

In order of falling “INDIVIDUAL ES LOO_TCR2” value:
1. AGGVAVIKAGAATEV  9.403e-5
2. AAVEEGIVAGGGVTLL  -3.795e-6
3. ALVREGLRNVAAGANP  -1.224e-5
4. AKAAVEEGIVAGGGV  -3.046e-5
5. AEKVRNLPAGHGLNAQ  -0.0001199

same assay, conditions: leave-one-out pool without TCR3

In order of falling “INDIVIDUAL ES LOO_TCR3” value:
1. AAVEEGIVAGGGVTLL  1.5842e-5
2. ALVREGLRNVAAGANP  -1.224e-5
3. AKAAVEEGIVAGGGV  -2.304e-5
4. AEKVRNLPAGHGLNAQ  -3.193e-5
5. AGGVAVIKAGAATEV  -4.985e-5

same assay, conditions: leave-one-out pool without TCR5

In order of rising “INDIVIDUAL ES LOO_TCR5” value:
1. ALVREGLRNVAAGANP  -1.224e-5
2. AKAAVEEGIVAGGGV  -3.485e-6
3. AEKVRNLPAGHGLNAQ  1.335e-5
4. AGGVAVIKAGAATEV  2.576e-5
5. AAVEEGIVAGGGVTLL  3.701e-5

same assay, conditions: leave-one-out pool without TCR7

In order of rising “INDIVIDUAL ES LOO_TCR7” value:
1. ALVREGLRNVAAGANP  -1.224e-5
2. AEKVRNLPAGHGLNAQ  -1.1271e-5
3. AGGVAVIKAGAATEV  3.872e-6
4. AAVEEGIVAGGGVTLL  1.545e-5
5. AKAAVEEGIVAGGGV  9.492e-5

same assay, conditions: leave-one-out pool without TCR24

In order of falling “INDIVIDUAL ES LOO_TCR24” value:
1. AKAAVEEGIVAGGGV  4.6789e-5
2. AAVEEGIVAGGGVTLL  -1.25e-6
3. ALVREGLRNVAAGANP  -1.224e-5
4. AGGVAVIKAGAATEV  -1.653e-5
5. AEKVRNLPAGHGLNAQ  -8.015e-5

same assay, conditions: leave-one-out pool without TCR37

In order of falling “INDIVIDUAL ES LOO_TCR37” value:
1. AGGVAVIKAGAATEV  5.688e-5
2. AKAAVEEGIVAGGGV  6.867e-6
3. AAVEEGIVAGGGVTLL  -5.451e-6
4. ALVREGLRNVAAGANP  -1.224e-5
5. AEKVRNLPAGHGLNAQ  -1.6913e-5

tested on: TCR3; test: Multiplexed TCR/library dropout screen, mean ES; assay type: cell-based, mouse; conditions: two I-Ag7 libraries combined, mixture of seven TCRs, dropout replicates (n = 6)
Description: (§1) Finally, we sought to address two important aspects of antigen discovery techniques. First, we assessed whether SABR-II screens can directly read out the strength of TCR–pMHC binding. To that end, we selected six known BDC2.5 ligands across a range of ES values (Extended Data Fig. 9a) and we measured the functional avidity of their recognition by BDC2.5 TCR in vitro. Bone-marrow-derived dendritic cells were pulsed with a range of concentrations of peptides corresponding to the epitopes and used to present the peptides to BDC2.5 TCR-expressing 5KC cells. Secretion of mIL-2 was measured by ELISA and used to determine the functional avidity as EC50 (concentration of the peptide needed to induce half-maximal mIL-2) (Extended Data Fig. 9b). We observed that there was a modest negative correlation between the EC50 values of the epitopes and their ES values (Extended Data Fig. 9c). […] Second, we evaluated whether we could increase the throughput of SABR-II screens by multiplexing TCRs and libraries at the cellular level. We combined the two previously described I-Ag7 libraries in equal proportions according to their size and used it as a single library. We also employed a dropout strategy, in which a mixture of seven TCRs was screened in replicate, where one TCR was left out in each replicate. After single enrichment, we determined the mean ES of all replicates that contained a given TCR and used it to identify the cognate epitope of that TCR (Extended Data Fig. 10 and Supplementary Table 6). Using this strategy, we were able to successfully recapitulate the results for four out of four TCRs previously identified in individual screens. The use of such a strategy will greatly enhance the throughput or SABR-II screens by reducing the hands-on sort time from 1 h per TCR to 20 min per TCR.
(§2) For SABR library screens, 3 × 10^6 NFAT–GFP Jurkat cells expressing the SABR library were labeled with CellTrace Violet (BioLegend) according to the manufacturer’s protocol before incubation with 3 × 10^6 Jurkat cells expressing the TCR of interest. These mixtures were incubated in a six-well plate for 16–20 h. Cells were stained with anti-CD69-APC-Cy7 where indicated (BioLegend) and the top 1–2% of GFP^+CD69^+ cells were sorted for genomic DNA extraction, indexing and sequencing (see below). Multiplexed assays were scaled on a per-TCR basis (for example 3 × 10^6 for each of three TCRs against 9 × 10^6 library cells). For single SABR assays, unless otherwise defined, 5 × 10^5 SABR expressing NFAT–GFP Jurkat cells (or 5KC cells) were labeled with CellTrace Violet (BioLegend) according to the manufacturer’s protocol before incubation with 5 × 10^5 TCR-expressing Jurkat cells (or 5KC cells) in a round-bottom 96-well plate for 16–20 h. Cells were stained with anti-CD69-APC-Cy7 when indicated and acquired on the Attune NxT flow cytometer (Thermo Fisher Scientific). All flow analysis was performed using FlowJo (BD). For Daudi cell co-culture, 1 × 10^6 Jurkat cells expressing the TCR of interest were incubated with 1 × 10^6 Daudi cells expressing a SABR of interest for 3 days. On day 3, cells were labeled with anti-RT1B-PE and anti-Fas-APC-Cy7 before being acquired on the Attune NxT flow cytometer.
(§3) Genomic DNA was extracted from sorted cells immediately after sorting, using the PureLink genomic DNA extraction kit (Life Technologies). The integrated SABR vectors were amplified with KOD polymerase (Millipore) and two rounds of amplification. In the first round, IDT-UD-SABR-C2-F and IDT-UD-SABR-C2-R primers were used to amplify the epitope. In the second round, UDI0001-R and UDI0001-F primers (representative of index 1) were used to add Illumina unique dual indexes (UDIs) to the amplicons. A different UDI was used for each sample. The reactions were pooled and purified with the NucleoSpin gel and PCR purification kit (Takara). The purified PCR product was checked before sequencing using 2% agarose gel and subjected to sequencing on a HiSeq4000 (Fulgent Genetics). […]

In order of rising “Mean Dropout Enrichment Score” value:
1. AEKVRNLPAGHGLNAQ  -2.694e-5
2. ALVREGLRNVAAGANP  -1.224e-5
3. AAVEEGIVAGGGVTLL  -1.302e-6
4. AKAAVEEGIVAGGGV  1.247e-5
5. AGGVAVIKAGAATEV  3.191e-5

tested on: TCR24; test: Multiplexed TCR/library dropout screen, mean ES; assay type: cell-based, mouse; conditions: Avg ES for all the replicates that contain that TCR (TCR24)
Description: as §1, §2, §3

In order of rising “ES for each dropout, LOO_TCR24” value:
1. AEKVRNLPAGHGLNAQ  -1.89e-5
2. ALVREGLRNVAAGANP  -1.224e-5
3. AKAAVEEGIVAGGGV  8.2968e-7
4. AAVEEGIVAGGGVTLL  1.546e-6
5. AGGVAVIKAGAATEV  2.636e-5

tested on: TCR37; test: Multiplexed TCR/library dropout screen, mean ES; assay type: cell-based, mouse; conditions: Avg ES for all the replicates that contain that TCR (TCR37)
Description: as §1, §2, §3

In order of rising “ES for each dropout, LOO_TCR37” value:
1. AEKVRNLPAGHGLNAQ  -2.944e-5
2. ALVREGLRNVAAGANP  -1.224e-5
3. AAVEEGIVAGGGVTLL  2.247e-6
4. AKAAVEEGIVAGGGV  7.483e-6
5. AGGVAVIKAGAATEV  1.413e-5

tested on: TCR5; test: Multiplexed TCR/library dropout screen, mean ES; assay type: cell-based, mouse; conditions: two I-Ag7 libraries combined, mixture of seven TCRs, dropout replicates (n = 6)
Description: as §1, §2, §3

In order of rising “Mean Dropout Enrichment Score” value:
1. AEKVRNLPAGHGLNAQ  -3.449e-5
2. ALVREGLRNVAAGANP  -1.224e-5
3. AAVEEGIVAGGGVTLL  -4.831e-6
4. AKAAVEEGIVAGGGV  9.209e-6
5. AGGVAVIKAGAATEV  1.931e-5

tested on: TCR7; test: Multiplexed TCR/library dropout screen, mean ES; assay type: cell-based, mouse; conditions: two I-Ag7 libraries combined, mixture of seven TCRs, dropout replicates (n = 6)
Description: as §1, §2, §3

In order of falling “Mean Dropout Enrichment Score” value:
1. AGGVAVIKAGAATEV  2.296e-5
2. AAVEEGIVAGGGVTLL  -1.2378e-6
3. AKAAVEEGIVAGGGV  -7.192e-6
4. ALVREGLRNVAAGANP  -1.224e-5
5. AEKVRNLPAGHGLNAQ  -3.038e-5

tested on: TCR2; test: Multiplexed TCR/library dropout screen, mean ES; assay type: cell-based, mouse; conditions: Avg ES for all the replicates that contain that TCR (TCR2)
Description: as §1, §2, §3

In order of rising “ES for each dropout, LOO_TCR2” value:
1. AEKVRNLPAGHGLNAQ  -1.229e-5
2. ALVREGLRNVAAGANP  -1.224e-5
3. AAVEEGIVAGGGVTLL  1.97e-6
4. AGGVAVIKAGAATEV  7.935e-6
5. AKAAVEEGIVAGGGV  1.371e-5

tested on: TCR1; test: Multiplexed TCR/library dropout screen, mean ES; assay type: cell-based, mouse; conditions: two I-Ag7 libraries combined, mixture of seven TCRs, dropout replicates (n = 6); one biological experiment
Description: as §1, §2, §3

In order of rising “Mean Dropout Enrichment Score” value:
1. AEKVRNLPAGHGLNAQ  -4.113e-5
2. ALVREGLRNVAAGANP  -1.224e-5
3. AAVEEGIVAGGGVTLL  9.635e-6
4. AKAAVEEGIVAGGGV  1.526e-5
5. AGGVAVIKAGAATEV  1.903e-5
